These results are taken from patent US5684162A, “Leukotriene B4 antagonists” (G.D. Searle & Co., priority 1996, dated 1997).

For one assay, the system named is Human neutrophils. In words: Modified Boyden Chamber Chemotaxis (LTB4-induced, human neutrophils). Type of assay: cell-based. The following applies: Neutrophil; 3×10^-8 M LTB4, human neutrophils, 40-90 minute incubation at 37° C., pH 7.3. The procedure:
Modified Boyden Chamber Chemotaxis
Human neutrophils were isolated from citrated peripheral blood using standard techniques of dextran sedimentation, followed by centrifugation on Histopaque® sterile solution (Sigma) or Ficoll-paque® (Pharmacia) and hypotonic lysis of erythrocytes. A final cell suspension of 3.4×10^6 neutrophils/ml of HEPES-buffered Hanks' balanced salt solution (HBSS, pH 7.3) was added to the upper well (0.8 ml) of a modified Boyden chamber (blind well). The lower well (0.2 ml), separated by a polycarbonate membrane (Nucleopore Corp.), contained HBSS or 3×10^-8 M LTB4 in the presence or absence of test compound. Following a 40-90 minute incubation at 37° C. in 5% CO2 -95% air, cells from the lower well were lysed and nuclei counted in a Model S-Plus-IV Coulter Counter. The number of neutrophils migrating into the lower chamber in the absence of chemoattractant was subtracted from the number of cells migrating in the presence of a chemoattractant. Inhibition of chemotaxis by test compounds was expressed as percent inhibition relative to uninhibited control.

The target of the next assay is T1, LTB4 Receptor (Homo sapiens, UniProt Q15722).
T1 construct: Neutrophils were purified from venous blood of normal human donors; endogenous in cells; host or cells: human peripheral blood neutrophils (>95% pure, normal donors)
T1 sequence (Q15722 whole entry): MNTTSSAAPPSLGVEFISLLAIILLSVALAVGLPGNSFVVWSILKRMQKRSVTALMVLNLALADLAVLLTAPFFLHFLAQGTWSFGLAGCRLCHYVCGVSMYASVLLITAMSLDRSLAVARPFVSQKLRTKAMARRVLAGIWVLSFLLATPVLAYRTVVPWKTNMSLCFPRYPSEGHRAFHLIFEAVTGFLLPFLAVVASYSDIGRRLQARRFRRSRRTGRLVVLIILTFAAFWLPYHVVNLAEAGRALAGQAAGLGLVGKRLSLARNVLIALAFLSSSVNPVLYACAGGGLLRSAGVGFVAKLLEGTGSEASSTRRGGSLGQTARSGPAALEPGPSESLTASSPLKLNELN
In words: LTB4 Receptor Binding Assay ([3H]LTB4, human neutrophils). The following applies: 0.6×10^-9 M (3H) LTB4, human neutrophils, 0° C., 45 minutes, pH 7.4. On the procedure:
Preparation of Human Neutrophils
Neutrophils were purified from venous blood of normal human donors using standard techniques of dextran sedimentation, centrifugation on Ficoll-paque® (Pharmacia) or Histopaque® sterile solution (Sigma) and hypotonic lysis of erythrocytes (Boyum, A., Isolation of Leukocytes From Human Blood: Further Observations. Scand. J. Lab. Clin. Invest., 21 (Suppl. 97): 31, 1968).
LTB4 Receptor Binding Assay
Neutrophils (4-6×10^6) in 1 ml Hanks' balanced salt solution (HBSS) containing 10 mM HEPES buffer , pH 7.4 and […] nordihydroguaiaretic acid were incubated with 0.6×10^-9 M (^3 H) LTB4 in the presence or absence of test compounds. The incubation was carried out at 0° C. for 45 minutes and terminated by adding 5 ml of ice-cold HBSS followed by rapid filtration of the incubation mixture under vacuum through GF/C glass fiber filters. The filters were further washed with 10 ml HBSS and radioactivity was determined. Specific binding was defined as the difference between total binding and nonspecific binding which was not displaced by 10^-7 M unlabeled LTB4. All data refer to specific binding.

One may read the IC50 as the concentration that gives 50% inhibition. A higher IC50 goes with a need for much substance. Turning to `CCCc1c(OCCCOc2ccc(C(=O)NC)c(OC)c2CC2CC2)ccc2c1OC(CCC(=O)NS(=O)(=O)c1ccc(C)cc1)CC2` (stereo not drawn) [Example 6], the IC50 amounted to 30 nM in the assay with Human neutrophils and 3.7 nM at LTB4 Receptor.
For `CCCc1c(OCCCOc2ccc(C(=O)NC)c(OC)c2CC2CC2)ccc2c1OC(CCC(=O)NS(=O)(=O)c1ccccc1)CC2` (stereo not drawn) [Example 5], the IC50 with Human neutrophils came to 25 nM; on LTB4 Receptor, 2.1 nM.
Taken in the same sequence, the figures for `CCCc1c(OCCCOc2ccc(C(=O)NC)c(OC)c2CC2CC2)ccc2c1OC(CCC(=O)NS(=O)(=O)c1ccccc1C)CC2` (stereo not drawn) [Example 7] were 23 nM and 3 nM.
